Data reported in patent publication US20180071317A1, “USE OF AGENTS THAT ALTER THE PERITUMORAL ENVIRONMENT FOR THE TREATMENT OF CANCER” (SERVICIO ANDALUZ DE SALUD, priority 2011, published 2018).

Assays:
[1] = test system: human primary fibroblasts (PHF); test: Marker expression (immunohistochemistry) in human primary fibroblasts with SP alone or with NK1 antagonists; format: cell-based; conditions: SP 1 μM + antagonist 1 μM; 48 h;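 also: primary human dermal fibroblasts, immunostained with rabbit polyclonal antibodies against each marker, value is percentage of stained cells among all cells counted in 20 fields at 400× per section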
Method: These PHF were obtained and purified from samples obtained from the dermis of the skin of healthy volunteers as described in De Bari et al (De Bari et al. 2001). Briefly, small pieces of skin dermis were digested in a solution of hyaluronidase (Sigma-Aldrich, USA) at a concentration of 1 mg/ml for 15 minutes at 37° C. and then treated with 6 mg/ml collagenase type IV (Invitrogen) for 2 hours at 37° C. Then, the cells were washed, resuspended in DMEM culture medium with high glucose (Dulbecco's Modified Eagle's Medium, Invitrogen) supplemented with 1% antibiotic-antimycotic (Invitrogen) and 1% pyruvate Sodium (Invitrogen), and seeded in culture dishes at a concentration of 10,000 cells per square centimeter. When the cells reached confluence, adherent cells were detached using 0.5% sterile trypsin (Invitrogen) and used between passages 3 and 9. For tests shown below, the PHF were plated in 24-well plates at a concentration of 25,000 cells per well.
After 48 hours of culture, cells were harvested and paraffin cell-blocks for immunohistochemical analysis were constructed, as previously explained in Example 1.
In immunohistochemical assays the expression of the following markers were studied: TGFα (SAB4502953), TGF1 (SAB4502954), TGFβ2 (SAB4502956), TGFβ3 (SAB4502957), SPARC (HPA002989), MMP-3 (HPA007875) MMP-7 (SAB4501894), MMP-9 (SAB4501896), MMP-11 (SAB4501898), MMP-13 (SAB4501900) and MMP-14 (SAB4501901) using specific antibodies against them. All antibodies used were rabbit polyclonal antibodies obtained from Sigma-Aldrich and were used at a concentration of 1/1000. All experiments were carried out sixfold.
On each of the six sections cell counts were performed in 20 high power fields (400×) through an Olympus microscope (model CX31) to assess the immunostaining. On each of the fields total cell number and number of cells displaying immunostaining were counted, being then the percentage of cells displaying said immunostaining.

mononuclear cells = test: Marker expression (immunohistochemistry) in mononuclear blood cells with SP alone or with NK1 antagonists; format: cell-based, human; conditions: SP 1 μM + antagonist 1 μM; 48 h
From the text: (§1) Briefly, heparinized blood from healthy donors was centrifuged so as to separate the various components thereof. Red blood cells remained at the bottom of the tube. Above them was a small white layer composed of the white blood cells and above, on top of the tube, the blood plasma. The layer of white cells was distributed in a culture plate of 24 wells by adding in each the same concentration of blood plasma from the same donor, supplemented with 1% antibiotic-antimycotic (Invitrogen). In each well, approximately 1000 cells (PHF) skin from the dermis were further added, obtained as previously described in Example 2. […] After 48 hours of incubation, cells were collected and embedded in paraffin for expression analysis by immunohistochemical techniques (as described in Example 1).
(§2) The expression of TGF molecular markers (anti-TGF 2, SAB4502956) and NF-kB (anti-NF-kB, SAB4501992) using specific antibodies against them were analyzed. All antibodies used were rabbit polyclonal antibodies obtained from Sigma Aldrich and were used at a concentration of 1/1000. All experiments were carried out sixfold.

polymorphonuclear cells = test: Marker expression (immunohistochemistry) in polymorphonuclear blood cells with SP alone or with NK1 antagonists; format: cell-based, human; conditions: SP 1 μM + antagonist 1 μM; 48 h
From the text: as §1, §2

[2] = test system: human primary macrophages (PHM); test: Marker expression (immunohistochemistry) in human primary macrophages with SP alone or with NK1 antagonists; format: cell-based; conditions: SP 1 μM + antagonist 1 μM; 48 h
Method: In this sense the next step was to analyze the effect exerted by the treatment with non-peptide NK1 antagonists in human primary macrophages (PHM) obtained and purified from pleural effusion samples obtained from men with chronic age range between 45 and 55 years. Briefly, the pleural fluid from chronic (rich in macrophages) was centrifuged.
After 48 hours of culture, cells were harvested and cellular paraffin blocks were constructed for immunohistochemical analysis (see Example 1). To analyze the expression of markers EGF, MMP-9, VEGF and IL-8 antibodies were used as follows: EGF (rabbit monoclonal antibody, anti-EGF; 07-1432. Merck-Millipore), MMP-9 (polyclonal rabbit anti-MMP-9: SAB4501896, Sigma-Aldrich), VEGF (mouse monoclonal anti-VEGF, GF25-100UG, Merck-Millipore) and TNF-α (mouse monoclonal anti-TNF-α, number MAB 1021 catalogue, obtained from Merck-Millipore). All of these antibodies were used at a concentration of 1/1000. System for labelling with a secondary antibody specific for the primary antibodies obtained from rabbit or mouse was used, as was necessary in each case, both the Envision (Dako). All experiments were carried out sixfold.

[3] = test system: fibroblasts (PHF) co-cultured with tumor cells of human colon adenocarcinoma (SW-403); test: Marker expression (IHC) in PHF co-cultured with SW-403 tumor cells; format: cell-based; conditions: co-culture with SW-403; SP 1 μM + antagonist 1 μM; 48 h
[4] = test system: fibroblasts (PHF) co-cultured with tumor cells, ovarian carcinoma (EFO-27); test: Marker expression (IHC) in PHF co-cultured with EFO-27 tumor cells; format: cell-based, human; conditions: co-culture with EFO-27; SP 1 μM + antagonist 1 μM; 48 h;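 also: values are the percentage of PHF fibroblasts positive for each marker, cultured in fresh plasma from a healthy human donor, each experiment run in six replicates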
Method: (§3) All cultures were maintained 48 hours, following which the same cells were included in paraffin blocks for subsequent analysis of the expression of different markers by immunohistochemistry (see Example 1). […] All experiments were carried out sixfold. Analyzed markers in fibroblast cells (stromal cells) were: TGF-α, TGF-β1, TGF-β2, TGF-β3, SPARC, MMP-3, MMP-7, MMP-9, MMP-11, MMP-13 and MMP-14.

[5] = test system: fibroblasts (PHF) co-cultured with human choriocarcinoma tumor cells (AC-1M32); test: Marker expression (IHC) in PHF co-cultured with AC-1M32 tumor cells; format: cell-based; conditions: co-culture with AC-1M32; SP 1 μM + antagonist 1 μM; 48 h;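 also: Read-out is the percentage of PHF fibroblasts positive for each marker, with cells grown in fresh healthy-donor blood plasma, six replicates, reference being fibroblasts cultured alone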
Method: as §3

[6] = test system: fibroblasts (PHF) co-cultured with tumor cells, thyroid carcinoma (reference A-427); test: Marker expression (IHC) in PHF co-cultured with thyroid carcinoma tumor cells; format: cell-based, human; conditions: co-culture with thyroid carcinoma cells; SP 1 μM + antagonist 1 μM; 48 h;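 also: grown in fresh plasma from a healthy human donor, read-out is percent of fibroblasts positive for each marker, compared with fibroblasts cultured alone, run in six replicates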
Method: as §3

[7] = test system: fibroblasts (PHF) co-cultured with tumor cells, thyroid carcinoma; test: as above; format: cell-based, human; conditions: co-culture with thyroid carcinoma cells; SP 1 μM + antagonist 1 μM; 48 h
Method: as §3

[8] = test system: fibroblasts (PHF) co-cultured with tumor cells in human prostate carcinoma (22Rv1); test: Marker expression (IHC) in PHF co-cultured with 22Rv1 tumor cells; format: cell-based; conditions: co-culture with 22Rv1; SP 1 μM + antagonist 1 μM; 48 h;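 also: cultures grown on fresh plasma from a healthy donor, each experiment run sixfold, values give the percentage of fibroblasts positive for the given marker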
Method: as §3

[9] = test system: fibroblasts (PHF) co-cultured with tumor cells of human Edwing sarcoma (MHH-ES-1); test: Marker expression (IHC) in PHF co-cultured with MHH-ES-1 tumor cells; format: cell-based; conditions: PHF co-cultured with MHH-ES-1 + SP + NK1 antagonist
Method: as §3

[10] = test system: fibroblasts (PHF) co-cultured with human neuroblastoma tumor cells (KELLY); test: Marker expression (IHC) in PHF co-cultured with KELLY tumor cells; format: cell-based; conditions: PHF co-cultured with KELLY + SP + NK1 antagonist;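 also: Co-cultures grown on healthy-donor human blood plasma, run in six replicates, value is percentage of fibroblasts positive for each marker, compared with fibroblasts cultured alone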
Method: as §3

[11] = test system: fibroblasts (PHF) co-cultured with tumor cells of human Burkitt lymphoma (CA-46); test: Marker expression (IHC) in PHF co-cultured with CA-46 tumor cells; format: cell-based; conditions: PHF co-cultured with CA-46 + SP + NK1 antagonist;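 also: percentage of PHF fibroblasts positive for each marker, cultures grown in fresh human plasma from a healthy donor, six replicates, compared with fibroblasts cultured alone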
[12] = test system: macrophages in co-culture with cells isolated from primary human tumors; test: Marker expression (IHC) in macrophages co-cultured with primary human tumor cells (colon, breast, ovarian, lung carcinoma, melanoma); format: cell-based; conditions: SP 1 μM + antagonist 1 μM;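 also: macrophages came from pleural or peritoneal washings of the patient who also supplied the tumor cells, and both were co-cultured on fresh blood plasma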
[13] = co-culture with cells isolated from breast carcinoma
[14] = co-culture with cells isolated from colon carcinoma
[15] = co-culture with cells isolated from lung carcinoma
[16] = co-culture with cells isolated from melanoma
[17] = co-culture with cells isolated from ovarian carcinoma

CC(=O)N1CCN([C@H]2CCN(C(=O)N(C)[C@H](C)c3cc(C(F)(F)F)cc(C(F)(F)F)c3)[C@@H](c3ccc(F)cc3C)C2)CC1 [Casopitant]
0%: PHF cells expressing MMP-3 [1] | PHF cells expressing MMP-7 [1] | PHF cells expressing MMP-9 [1] | PHF cells expressing MMP-11 [1] | PHF cells expressing MMP-13 [1] | PHF cells expressing MMP-14 [1] | PHF cells expressing SPARC [1] | PHF cells expressing TGFα [1] | PHF cells expressing TGFβ 1 [1] | PHF cells expressing TGFβ 2 [1] | PHF cells expressing TGFβ 3 [1] | mononuclear cells expressing NF-kB (mononuclear cells) | mononuclear cells expressing TGF-β (mononuclear cells) | polymorphonuclear cells expressing NF-kB (polymorphonuclear cells) | polymorphonuclear cells expressing TGF-β (polymorphonuclear cells) | macrophages expressing EGF [2] | macrophages expressing MMP-9 [2] | macrophages expressing VEGF [2] | PHF cells expressing MMP-3 [3] | PHF cells expressing MMP-7 [3] | PHF cells expressing MMP-9 [3] | PHF cells expressing MMP-11 [3] | PHF cells expressing MMP-13 [3] | PHF cells expressing MMP-14 [3] | PHF cells expressing SPARC [3] | PHF cells expressing TGF-α [3] | PHF cells expressing TGF-β1 [3] | PHF cells expressing TGF-β2 [3] | PHF cells expressing TGF-β3 [3] | PHF cells expressing MMP-3 [4] | PHF cells expressing MMP-7 [4] | PHF cells expressing MMP-9 [4] | PHF cells expressing MMP-11 [4] | PHF cells expressing MMP-13 [4] | PHF cells expressing MMP-14 [4] | PHF cells expressing SPARC [4] | PHF cells expressing TGF-α [4] | PHF cells expressing TGF-β1 [4] | PHF cells expressing TGF-β2 [4] | PHF cells expressing TGF-β3 [4] | PHF cells expressing MMP-3 [5] | PHF cells expressing MMP-7 [5] | PHF cells expressing MMP-9 [5] | PHF cells expressing MMP-11 [5] | PHF cells expressing MMP-13 [5] | PHF cells expressing MMP-14 [5] | PHF cells expressing SPARC [5] | PHF cells expressing TGF-α [5] | PHF cells expressing TGF-β1 [5] | PHF cells expressing TGF-β2 [5] | PHF cells expressing TGF-β3 [5] | PHF cells expressing MMP-3 [6] | PHF cells expressing MMP-7 [6] | PHF cells expressing MMP-9 [6] | PHF cells expressing MMP-13 [6] | PHF cells expressing MMP-14 [6] | PHF cells expressing SPARC [6] | PHF cells expressing TGF-α [6] | PHF cells expressing TGF-β1 [6] | PHF cells expressing TGF-β2 [6] | PHF cells expressing TGF-β3 [6] | PHF cells expressing MMP-11 [7] | PHF cells expressing MMP-3 [8] | PHF cells expressing MMP-7 [8] | PHF cells expressing MMP-9 [8] | PHF cells expressing MMP-11 [8] | PHF cells expressing MMP-13 [8] | PHF cells expressing MMP-14 [8] | PHF cells expressing SPARC [8] | PHF cells expressing TGF-α [8] | PHF cells expressing TGF-β1 [8] | PHF cells expressing TGF-β2 [8] | PHF cells expressing TGF-β3 [8] | cells expressing MMP-3 [9] | cells expressing MMP-7 [9] | cells expressing MMP-9 [9] | cells expressing MMP-11 [9] | cells expressing MMP-13 [9] | cells expressing MMP-14 [9] | cells expressing SPARC [9] | cells expressing TGF-α [9] | cells expressing TGF-β1 [9] | cells expressing TGF-β2 [9] | cells expressing TGF-β3 [9] | cells expressing MMP-3 [10] | cells expressing MMP-7 [10] | cells expressing MMP-9 [10] | cells expressing MMP-11 [10] | cells expressing MMP-13 [10] | cells expressing MMP-14 [10] | cells expressing SPARC [10] | cells expressing TGF-α [10] | cells expressing TGF-β1 [10] | cells expressing TGF-β2 [10] | cells expressing TGF-β3 [10] | cells expressing MMP-3 [11] | cells expressing MMP-7 [11] | cells expressing MMP-9 [11] | cells expressing MMP-11 [11] | cells expressing MMP-13 [11] | cells expressing MMP-14 [11] | cells expressing SPARC [11] | cells expressing TGF-α [11] | cells expressing TGF-β1 [11] | cells expressing TGF-β2 [11] | cells expressing TGF-β3 [11] | Percentage of macrophages which expressed EGF [12, 13] | Percentage of macrophages which expressed MMP-9 [12, 13] | Percentage of macrophages which expressed VEGF [12, 13] | Percentage of macrophages which expressed EGF [12, 14] | Percentage of macrophages which expressed MMP-9 [12, 14] | Percentage of macrophages which expressed VEGF [12, 14] | Percentage of macrophages which expressed EGF [12, 15] | Percentage of macrophages which expressed MMP-9 [12, 15] | Percentage of macrophages which expressed VEGF [12, 15] | Percentage of macrophages which expressed EGF [12, 16] | Percentage of macrophages which expressed MMP-9 [12, 16] | Percentage of macrophages which expressed VEGF [12, 16] | Percentage of macrophages which expressed EGF [12, 17] | Percentage of macrophages which expressed MMP-9 [12, 17] | Percentage of macrophages which expressed VEGF [12, 17]
